According to patent US8461328B2, “Tricyclic heterocyclic compounds, compositions and methods of use thereof” (Genentech, Inc., priority 2010, dated 2013):
pKi: −log10 of the molar value.

Key:
Format in all cases: biochemical
JAK2 = biological target: T1, JAK2 (Homo sapiens, UniProt O60674); assay: JAK2 inhibition (Table 4); settings: read-out: JAK2 Ki
T1 construct: made in house; host or cells: SF9 insect cells (baculovirus)

JAK3 = biological target: T2, JAK3 (Homo sapiens, UniProt P52333); assay: JAK3 inhibition (Table 4); settings: read-out: JAK3 Ki
T2 construct: made in house; host or cells: SF9 insect cells (baculovirus)
T2 sequence (P52333 783-1124): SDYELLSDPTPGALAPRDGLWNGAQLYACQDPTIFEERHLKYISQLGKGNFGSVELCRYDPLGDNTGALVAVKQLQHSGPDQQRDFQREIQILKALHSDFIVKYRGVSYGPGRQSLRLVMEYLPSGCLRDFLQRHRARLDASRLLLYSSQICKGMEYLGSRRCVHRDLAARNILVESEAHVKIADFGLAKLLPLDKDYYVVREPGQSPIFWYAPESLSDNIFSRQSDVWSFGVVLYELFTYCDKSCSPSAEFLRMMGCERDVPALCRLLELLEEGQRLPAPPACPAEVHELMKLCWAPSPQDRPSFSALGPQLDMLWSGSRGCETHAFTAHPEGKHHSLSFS

TYK2 = biological target: T3, TYK2 (Homo sapiens, UniProt P29597); assay: TYK2 inhibition (Table 4)
T3 construct: made in house; host or cells: SF9 insect cells (baculovirus)
T3 sequence (P29597 873-1187): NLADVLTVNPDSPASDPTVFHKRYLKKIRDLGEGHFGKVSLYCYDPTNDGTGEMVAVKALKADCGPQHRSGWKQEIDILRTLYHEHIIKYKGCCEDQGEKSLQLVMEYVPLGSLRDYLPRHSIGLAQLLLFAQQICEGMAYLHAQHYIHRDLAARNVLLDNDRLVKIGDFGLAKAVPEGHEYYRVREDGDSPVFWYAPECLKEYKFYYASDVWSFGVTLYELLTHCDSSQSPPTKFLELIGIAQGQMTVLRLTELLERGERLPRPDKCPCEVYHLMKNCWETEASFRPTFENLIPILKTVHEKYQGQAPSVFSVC

JAK1 = biological target: T4, JAK1 (Homo sapiens, UniProt P23458); assay: JAK1 inhibition (Table 4); settings: read-out: JAK1 Ki
T4 construct: made in house; host or cells: SF9 insect cells (baculovirus)
T4 sequence (P23458 852-1154): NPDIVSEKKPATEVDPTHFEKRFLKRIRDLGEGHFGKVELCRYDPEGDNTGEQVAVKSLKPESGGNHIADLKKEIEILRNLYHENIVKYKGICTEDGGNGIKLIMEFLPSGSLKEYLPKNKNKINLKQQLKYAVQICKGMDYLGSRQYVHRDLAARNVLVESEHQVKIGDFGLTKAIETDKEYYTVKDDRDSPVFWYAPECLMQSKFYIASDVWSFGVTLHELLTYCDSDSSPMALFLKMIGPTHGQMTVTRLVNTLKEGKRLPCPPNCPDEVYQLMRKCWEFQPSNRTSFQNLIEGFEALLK

T1 sequence (O60674 812-1132): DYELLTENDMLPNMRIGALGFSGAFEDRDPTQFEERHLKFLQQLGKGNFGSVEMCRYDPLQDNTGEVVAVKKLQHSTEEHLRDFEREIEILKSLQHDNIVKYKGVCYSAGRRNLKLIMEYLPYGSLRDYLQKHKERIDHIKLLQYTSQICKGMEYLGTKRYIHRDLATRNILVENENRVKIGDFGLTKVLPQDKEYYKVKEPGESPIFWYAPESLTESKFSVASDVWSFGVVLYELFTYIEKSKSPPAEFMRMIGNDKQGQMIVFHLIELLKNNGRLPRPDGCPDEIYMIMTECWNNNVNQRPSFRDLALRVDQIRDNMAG

pKi (JAK2) | pKi (JAK3) | pKi (TYK2) | pKi (JAK1) | Structure (SMILES)
7.55 | 7.74 | 7.48 | 8.42 | CC(O)c1nc2cnc3[nH]ccc3c2n1C1CCN(CCC#N)CC1 (racemic) [Example 158, Racemic 3-{4-[2-(1-Hydroxy-ethyl)-6H-1,2,3,5,6-tetraaza-as-indacen-1-yl]-piperidin-1-yl}-propionitrile]
6.60 | 7.65 | 5.56 | 6.85 | CC(C)NC(=O)C(C)c1nc2cnc3[nH]ccc3c2n1C1CCN(CCC#N)CC1 (racemic) [Example 172, Racemic 2-{1-[1-(2-Cyano-ethyl)-piperidin-4-yl]-1,6-dihydro-1,2,3,5,6-tetraaza-as-indacene-2-yl}-N-isopropyl-propionamide]
6.85 | 6.38 | 6.48 | 7.31 | CC1CC(n2cnc3cnc4[nH]ccc4c32)CCN1 (racemic) [Example 229, 1-(2-Methyl-piperidin-4-yl)-1,6-dihydro-1,3,5,6-tetraaza-as-indacene]
6.91 | 6.37 | 6.36 | 7.32 | CC1CC(n2cnc3cnc4[nH]ccc4c32)CCN1 (racemic) [Example 230, 1-(2-Methyl-piperidin-4-yl)-1,6-dihydro-1,3,5,6-tetraaza-as-indacene]
8.18 | 7.37 | 7.75 | 8.36 | O=C(C1CC1F)N1CCC[C@@H](n2cnc3cnc4[nH]ccc4c32)C1 (mixture of isomers) [Example 235, (2-Fluoro-cyclopropyl)-[(R)-3-(6H-1,3,5,6-tetraaza-as-indacen-1-yl)-piperidin-1-yl]-methanone]
6.44 | 5.47 | 5.74 | 6.70 | CC(C)(C)OC(=O)N1CCCC1(C)C(=O)N1CCC(n2cnc3cnc4[nH]ccc4c32)CC1 (racemic) [Example 244, 2-Methyl-2-[4-(6H-1,3,5,6-tetraaza-as-indacen-1-yl)-piperidine-1-carbonyl]-pyrrolidine-1 carboxylic acid tert-butyl ester]
6.57 | 5.69 | 5.46 | 6.67 | CC1(C(=O)N2CCC(n3cnc4cnc5[nH]ccc5c43)CC2)CCCN1 (racemic) [Example 251]
6.07 | 6.14 | 6.47 | 7.99 | CC(O)c1nc2cnc3[nH]ccc3c2n1C1CCNCC1 (racemic) [Example 291]
7.58 | 8.10 | 6.66 | 8.53 | CC(O)c1nc2cnc3[nH]ccc3c2n1C1CCN(Cc2cccnc2)CC1 (racemic) [Example 292, 1-[1-(1-Pyridin-3-ylmethyl-piperidin-4-yl)-1,6-dihydro-1,3,5,6-tetraaza-as-indacen-2-yl]-ethanol]
6.75 | 6.82 | 6.42 | 7.43 | NC1CCC(n2cnc3cnc4[nH]ccc4c32)C1 (racemic) [Example 294, 3-(6H-1,3,5,6-Tetraaza-as-indacen-1-yl)-cyclopentylamine]
7.74 | 7.54 | 7.18 | 8.11 | N#CCCNC1CCC(n2cnc3cnc4[nH]ccc4c32)C1 (racemic) [Example 300, 3-[3-(6H-1,3,5,6-Tetraaza-as-indacen-1-yl)-cyclopentylamino]-propionitrile]
9.03 | 7.77 | 8.43 | 9.11 | CC(CC#N)N1CCC(n2cnc3cnc4[nH]ccc4c32)CC1 (racemic) [Example 305, 3-[4-(6H-1,3,5,6-Tetraaza-as-indacen-1-yl)-piperidin-1-yl]-butyronitrile]
6.81 | 6.33 | 6.35 | 7.46 | CC1CNCCC1n1cnc2cnc3[nH]ccc3c21 (racemic) [Example 306, 1-(3-Methyl-piperidin-4-yl)-1,6-dihydro-1,3,5,6-tetraaza-as-indacene]
6.38 | 6.20 | 5.98 | 7.32 | CC1CNCCC1n1cnc2cnc3[nH]ccc3c21 (racemic) [Example 312, 1-(3-Methyl-piperidin-4-yl)-1,6-dihydro-1,3,5,6-tetraaza-as-indacene]
8.75 | 8.17 | 8.11 | 9.09 | CC1CN(CCC#N)CCC1n1cnc2cnc3[nH]ccc3c21 (racemic) [Example 323, 3-[3-Methyl-4-(6H-1,3,5,6-tetraaza-as-indacen-1-yl)-piperidin-1-yl]-propionitrile]
9.22 | 8.28 | 8.42 | 9.20 | CC1CN(CCC#N)CCC1n1cnc2cnc3[nH]ccc3c21 (racemic) [Example 324, 3-[3-Methyl-4-(6H-1,3,5,6-tetraaza-as-indacen-1-yl)-piperidin-1-yl]-propionitrile]
8.63 | 7.63 | 7.60 | 8.70 | CC1CN(Cc2cncnc2)CCC1n1cnc2cnc3[nH]ccc3c21 (racemic) [Example 342, 1-(3-Methyl-1-pyrimidin-5-ylmethyl-piperidin-4-yl)-1,6-dihydro-1,3,5,6-tetraaza-as-indacene]
7.86 | 8.49 | 6.46 | 8.24 | CC1CN(Cc2cncnc2)CCC1n1cnc2cnc3[nH]ccc3c21 (racemic) [Example 343, 1-(3-Methyl-1-pyrimidin-5-ylmethyl-piperidin-4-yl)-1,6-dihydro-1,3,5,6-tetraaza-as-indacene]
7.52 | 7.09 | 6.48 | 7.80 | CC1CN(S(C)(=O)=O)CCC1n1cnc2cnc3[nH]ccc3c21 (racemic) [Example 344, 1-(1-Methanesulfonyl-3-methyl-piperidin-4-yl)-1,6-dihydro-1,3,5,6-tetraaza-as-indacene]
8.01 | 6.45 | 7.43 | 8.04 | CC1CN(S(C)(=O)=O)CCC1n1cnc2cnc3[nH]ccc3c21 (racemic) [Example 345, 1-(1-Methanesulfonyl-3-methyl-piperidin-4-yl)-1,6-dihydro-1,3,5,6-tetraaza-as-indacene]
7.30 | 6.75 | 6.57 | 8.19 | CC(O)c1nc2cnc3[nH]ccc3c2n1C1CCN(Cc2ccnc(C#N)c2)CC1 (racemic) [Example 350, 4-{4-[2-(1-Hydroxy-ethyl)-6H-1,3,5,6-tetraaza-as-indacen-1-yl]-piperidin-1-ylmethyl}-pyridine-2-carbonitrile]
7.53 | 7.50 | 6.55 | 8.31 | CC(O)c1nc2cnc3[nH]ccc3c2n1C1CCN(Cc2csc(C(F)(F)F)n2)CC1 (racemic) [Example 351, 1-{1-[1-(2-Trifluoromethyl-thiazol-4-ylmethyl)-piperidin-4-yl]-1,6-dihydro-1,3,5,6-tetraaza-as-indacen-2-yl}-ethanol]
8.25 | 7.63 | 7.35 | 8.99 | Cc1nc2cnc3[nH]ccc3c2n1C1CCC(NC(=O)OC(C)(C)C)C1 (racemic) [Example 352, [(1S,3S)-3-(2-Methyl-6H-1,3,5,6-tetraaza-as-indacen-1-yl]-cyclopentyl]-carbamic acid tert-butyl ester]
7.35 | 7.38 | 7.46 | 8.42 | CC(O)c1nc2cnc3[nH]ccc3c2n1C1CCN(CC(F)(F)F)CC1 (racemic) [Example 355, 1-{1-[1-(2,2,2-Trifluoro-ethyl)-piperidin-4-yl]-1,6-dihydro-1,3,5,6-tetraaza-as-indacen-2-yl}-ethanol]
7.84 | 7.59 | 7.14 | 8.56 | CCC(C)S(=O)(=O)NCCc1nc2cnc3[nH]ccc3c2n1C1CCN(CCC#N)CC1 (racemic) [Example 369, Butane-2-sulfonic acid (2-{1-[1-(2-cyano-ethyl)-piperidin-4-yl]-1,6-dihydro-1,3,5,6-tetraaza-as-indacen-2-yl}-ethyl)-amide]
6.86 | 7.32 | 6.28 | 7.76 | CN1CC(c2nc3cnc4[nH]ccc4c3n2C2CCN(CCC#N)CC2)CC1=O (racemic) [Example 384, 3-{4-[2-(1-Methyl-5-oxo-pyrrolidin-3-yl)-6H-1,3,5,6-tetraaza-as-indacen-1-yl]-piperidin-1-yl}-propionitrile]
6.78 | 7.11 | 6.35 | 7.63 | CC(C)N1CC(c2nc3cnc4[nH]ccc4c3n2C2CCN(CCC#N)CC2)CC1=O (racemic) [Example 388, 3-{4-[2-(1-Isopropyl-5-oxo-pyrrolidin-3-yl)-6H-1,3,5,6-tetraaza-as-indacen-1-yl]-piperidin-1-yl}-propionitrile]
7.12 | 7.32 | 6.35 | 7.67 | CC(=O)N1CCC(c2nc3cnc4[nH]ccc4c3n2C2CCN(CCC#N)CC2)C1 (racemic) [Example 390, 3-{4-[2-(1-Acetyl-pyrrolidin-3-yl)-6H-1,3,5,6-tetraaza-as-indacen-1-yl]-piperidin-1-yl}-propionitrile]
